This is an account of results in patent US6350766B1, “Dihydropyridine derivative” (Ajinomoto Co., Inc., priority 1997, dated 2002).

The target in experiment [1] is T1, N-type calcium channel (Rattus norvegicus, UniProt Q02294).
T1 construct: from tissue; host or cells: freshly dissociated sympathetic ganglion cells of Wistar rats (2 to 4 weeks old)
The experiment in a line: Inhibition of N-type calcium channel: calcium currents in cells of maxillary sympathetic ganglions of rats, whole cell voltage clamp. The settings on record: rat maxillary sympathetic ganglion cells, depolarization from -60 mV to 0 mV, barium as charge carrier. It is filed as cell-based. On the procedure:
(Test Examples) Inhibition activity of N-type calcium channel:
1) Preparation of cells of maxillary sympathetic ganglions of rats:
The cervix of each of Wistar rats (2 to 4 weeks old) was opened to expose the maxillary ganglions under anesthesia with pentobarbital. A pair of the ganglions were removed and immediately washed with Ca^2+-free Tyrode solution cooled with ice. Each ganglion was cut into 3 or 4 pieces and kept in the Ca^2+-free Tyrode solution for 15 minutes. Then, these pieces were treated with papain [Washington Biochemicals (lot#35J557); 20 U/ml] and then with a mixture of type-2 collagenase [Washington Biochemicals (CLS2); 5900 U/ml] and dispase [Calbiochem (lot#1312973); 16 mg/ml] for one hour. After enzymatic treatment, the ganglion cells were mechanically isolated by pipetting. The isolated ganglion cells were used for the experiments within 6 hours.
2) Determination of calcium electric current:
The calcium electric current was determined by the whole cell voltage clamp method under the fixed membrane potential. The pipette electrode was pulled from glass tube (inner diameter: 1.5 mm; Narishige) in two stage of a vertical pipette puller (PB-7; Narishige). The ionic current was amplified with a patch amplifier (CEZ-2300; Nihon Kohden Corporation). The noises were cut at 10 kHz (E-3201B, NF Electronic Instrument) and then the ionic current was monitored on a storage oscilloscope (DS-9121, Iwatsu) and, at the same time, recorded with a DAT data recorder (RD-120TE, TEAC). Then it was passed through a 1 kHz filter and recorded in a computer (Compaq DeskPro) with PCLAMP software (Axon Instrument) of 3 kHz. All the experiments were performed at room temperature (25±2° C.). In the measurement of current through the calcium channel, 10 mM barium (composition of the solution: shown below) was used in place of calcium as the charge carrier. The transmission of barium through the calcium channel was better than that of calcium in the sympathetic ganglion cells, and the calcium-dependent channel inactivation was slight when barium was used.
The test compounds were rapidly administered by Y-tube method by Murase et al. [Brain Res. 525, 84 (1990)]. Each compound was dissolved in DMSO, preparing 10 mM mother solution. At the highest drug concentration used, the vehicle (0.1%) had no significant effect on the calcium current.
2) Composition of Normal Tyrode's solution: NaCl; 143, KCl; 4, MgCl2; 0.5; CaCl2; 1.8, glucose; 5.5, NaH2PO4; 0.33, HEPES; 5 (Mm). The pH was adjusted to 7.4 with tris-OH. Composition of Ca-free Tyrode's solution: the same as that of the Normal Tyrode's solution except that it was free of CaCl2.
External solution for the determination of calcium electric current (mM): TEACL; 144, CsCl; 4, BaCl2; […], MgCl2; 0.53, glucose: 5.5, HEPES; 5 (pH 7.4)
Solution in patch electrode: CsCl; 140, MgCl2; 5, CaCl2; 0.28, HEPES; 10 (pH 7.2), EGTA; 5 (pH 7.2).
The electric current was induced by the depolarization for 50 ms, from the holding potential of −60 mV to the test potential of 0 mV. This test potential was the peak in the current/voltage relationship, and the inhibition effect was examined at this point at which the error by the drift of the holding potential was reduced. As Tsein et al. reported, the maxillary ganglion cells were substantially free of L-type component (not more than 5%), and at least 85% thereof comprised the N-type component. […] The inhibition activity of the dihydropyridine derivatives (1 uM) thus determined was 10 to 70%.

Experiment [2] concerns L-type calcium channel. The experiment in a line: L-type calcium channel inhibition.

T1 sequence (Q02294 whole entry): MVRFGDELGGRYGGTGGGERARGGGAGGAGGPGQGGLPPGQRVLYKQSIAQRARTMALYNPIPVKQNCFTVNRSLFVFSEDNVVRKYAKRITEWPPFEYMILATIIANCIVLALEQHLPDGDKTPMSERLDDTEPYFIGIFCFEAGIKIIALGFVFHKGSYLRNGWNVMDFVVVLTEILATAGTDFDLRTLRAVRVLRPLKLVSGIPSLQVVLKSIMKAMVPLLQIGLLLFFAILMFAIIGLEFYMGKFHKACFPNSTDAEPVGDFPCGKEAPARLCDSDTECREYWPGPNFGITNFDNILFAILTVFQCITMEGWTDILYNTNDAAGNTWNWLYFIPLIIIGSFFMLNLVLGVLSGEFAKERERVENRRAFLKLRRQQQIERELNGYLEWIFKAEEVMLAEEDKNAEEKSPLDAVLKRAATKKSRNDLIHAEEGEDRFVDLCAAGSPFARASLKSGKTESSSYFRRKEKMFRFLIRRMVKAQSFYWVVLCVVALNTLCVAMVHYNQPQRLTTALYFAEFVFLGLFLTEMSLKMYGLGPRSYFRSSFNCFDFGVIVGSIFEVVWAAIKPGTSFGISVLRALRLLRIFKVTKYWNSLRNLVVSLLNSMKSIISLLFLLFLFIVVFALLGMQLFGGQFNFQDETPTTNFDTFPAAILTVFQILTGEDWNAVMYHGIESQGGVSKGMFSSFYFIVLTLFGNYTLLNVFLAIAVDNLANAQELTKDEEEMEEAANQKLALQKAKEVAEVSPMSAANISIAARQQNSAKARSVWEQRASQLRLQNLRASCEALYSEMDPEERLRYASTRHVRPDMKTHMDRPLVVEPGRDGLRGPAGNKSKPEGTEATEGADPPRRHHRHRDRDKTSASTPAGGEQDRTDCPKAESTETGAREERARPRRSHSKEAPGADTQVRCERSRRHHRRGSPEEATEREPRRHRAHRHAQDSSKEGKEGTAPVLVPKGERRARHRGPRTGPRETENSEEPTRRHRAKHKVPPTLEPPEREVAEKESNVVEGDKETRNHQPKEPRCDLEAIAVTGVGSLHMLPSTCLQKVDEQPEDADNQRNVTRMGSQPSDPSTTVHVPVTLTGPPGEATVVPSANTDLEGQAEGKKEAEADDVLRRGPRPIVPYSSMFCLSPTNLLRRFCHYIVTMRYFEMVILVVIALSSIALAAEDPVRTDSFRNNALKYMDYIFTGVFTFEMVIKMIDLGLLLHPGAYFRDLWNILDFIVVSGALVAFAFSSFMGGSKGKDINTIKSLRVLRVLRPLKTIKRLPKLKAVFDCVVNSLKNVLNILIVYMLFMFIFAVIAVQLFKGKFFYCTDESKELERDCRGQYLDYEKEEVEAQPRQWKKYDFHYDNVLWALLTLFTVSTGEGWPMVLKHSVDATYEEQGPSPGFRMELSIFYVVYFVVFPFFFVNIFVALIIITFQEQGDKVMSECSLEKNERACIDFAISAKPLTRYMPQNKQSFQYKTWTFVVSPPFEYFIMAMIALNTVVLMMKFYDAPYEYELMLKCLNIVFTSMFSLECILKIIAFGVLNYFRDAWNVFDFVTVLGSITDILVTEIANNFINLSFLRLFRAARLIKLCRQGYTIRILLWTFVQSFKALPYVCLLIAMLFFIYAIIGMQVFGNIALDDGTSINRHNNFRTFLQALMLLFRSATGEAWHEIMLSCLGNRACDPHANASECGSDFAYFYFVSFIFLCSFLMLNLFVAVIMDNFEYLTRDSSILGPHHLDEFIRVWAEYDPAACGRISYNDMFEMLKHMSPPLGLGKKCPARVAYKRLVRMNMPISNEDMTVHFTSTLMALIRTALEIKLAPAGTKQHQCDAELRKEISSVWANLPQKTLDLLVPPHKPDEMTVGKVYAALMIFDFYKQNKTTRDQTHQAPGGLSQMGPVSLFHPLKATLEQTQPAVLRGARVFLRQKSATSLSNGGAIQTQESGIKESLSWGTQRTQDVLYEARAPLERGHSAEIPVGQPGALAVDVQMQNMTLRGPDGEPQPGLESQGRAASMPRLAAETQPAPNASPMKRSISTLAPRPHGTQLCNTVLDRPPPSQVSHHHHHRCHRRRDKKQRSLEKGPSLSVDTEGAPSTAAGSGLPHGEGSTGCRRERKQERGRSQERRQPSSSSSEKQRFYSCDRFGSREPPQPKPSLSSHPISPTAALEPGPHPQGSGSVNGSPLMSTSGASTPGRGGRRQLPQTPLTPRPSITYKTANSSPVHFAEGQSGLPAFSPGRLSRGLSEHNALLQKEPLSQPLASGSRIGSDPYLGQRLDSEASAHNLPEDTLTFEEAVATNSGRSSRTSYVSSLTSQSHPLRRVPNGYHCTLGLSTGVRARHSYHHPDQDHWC
T1 sequence (P54287 whole entry partner): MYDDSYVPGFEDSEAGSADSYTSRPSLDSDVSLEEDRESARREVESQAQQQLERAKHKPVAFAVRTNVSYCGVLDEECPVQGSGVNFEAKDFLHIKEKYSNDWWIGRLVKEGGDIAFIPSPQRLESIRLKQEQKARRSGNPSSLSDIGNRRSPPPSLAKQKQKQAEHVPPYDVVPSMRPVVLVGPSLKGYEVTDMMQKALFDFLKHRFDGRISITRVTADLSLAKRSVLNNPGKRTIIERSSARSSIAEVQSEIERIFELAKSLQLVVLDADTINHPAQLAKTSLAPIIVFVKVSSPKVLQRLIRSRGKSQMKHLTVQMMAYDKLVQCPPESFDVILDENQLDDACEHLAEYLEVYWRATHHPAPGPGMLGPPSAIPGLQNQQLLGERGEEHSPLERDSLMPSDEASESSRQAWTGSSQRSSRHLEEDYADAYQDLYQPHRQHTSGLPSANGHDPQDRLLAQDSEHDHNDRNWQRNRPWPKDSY
T1 sequence (P54290 25-944 partner limits assumed): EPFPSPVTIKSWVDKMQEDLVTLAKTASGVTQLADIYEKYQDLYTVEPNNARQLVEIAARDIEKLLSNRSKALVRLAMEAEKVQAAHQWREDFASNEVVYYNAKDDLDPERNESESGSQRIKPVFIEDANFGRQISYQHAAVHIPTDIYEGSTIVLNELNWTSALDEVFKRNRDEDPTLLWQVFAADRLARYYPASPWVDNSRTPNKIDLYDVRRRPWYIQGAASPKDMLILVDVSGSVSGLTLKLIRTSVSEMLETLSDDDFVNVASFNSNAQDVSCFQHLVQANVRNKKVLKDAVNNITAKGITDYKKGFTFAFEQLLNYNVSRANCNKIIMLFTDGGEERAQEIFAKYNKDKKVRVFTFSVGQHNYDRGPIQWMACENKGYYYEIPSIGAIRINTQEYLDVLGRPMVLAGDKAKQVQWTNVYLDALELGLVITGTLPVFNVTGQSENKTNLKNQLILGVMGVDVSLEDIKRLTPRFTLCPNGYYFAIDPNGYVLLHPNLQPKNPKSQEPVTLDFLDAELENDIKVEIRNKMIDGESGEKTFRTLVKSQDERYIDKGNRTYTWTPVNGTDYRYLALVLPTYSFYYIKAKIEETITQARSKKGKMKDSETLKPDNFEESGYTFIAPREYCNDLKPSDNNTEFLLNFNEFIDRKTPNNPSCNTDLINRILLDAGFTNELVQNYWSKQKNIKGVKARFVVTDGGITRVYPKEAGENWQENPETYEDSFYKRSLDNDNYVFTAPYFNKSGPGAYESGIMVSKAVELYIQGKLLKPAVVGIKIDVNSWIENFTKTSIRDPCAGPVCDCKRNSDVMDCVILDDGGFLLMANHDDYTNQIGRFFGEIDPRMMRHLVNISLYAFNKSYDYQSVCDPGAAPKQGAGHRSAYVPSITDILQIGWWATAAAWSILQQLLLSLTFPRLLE
T1 sequence (P54290 945-1091 partner limits assumed): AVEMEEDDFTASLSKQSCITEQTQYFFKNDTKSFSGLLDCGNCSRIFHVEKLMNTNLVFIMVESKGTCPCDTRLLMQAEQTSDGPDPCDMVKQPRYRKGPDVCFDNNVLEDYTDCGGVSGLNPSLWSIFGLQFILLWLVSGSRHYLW

Regarding `CC1=C(C(=O)O)C(c2cccc(C#N)c2)C(C(=O)OC/C=C/c2ccccc2)=C(C)N1` (stereo not drawn) [Example 3, mono(3-phenyl-2-propene-1-yl) 4-(3-cyanophenyl)-2,6-dimethyl-1,4-dihydropyridine-3,5-dicarboxylate], in experiment [1], the inhibition at 0.1 µM is 47.5%. Besides, in experiment [2], the IC50 amounted to 6.3 nM and the “L-type inhibition 100 nM (%)” value was 98%.
Turning to `CC1=C(C(N)=O)C(c2cccc(Cl)c2)C(C(=O)OC/C=C/c2ccccc2)=C(C)N1` (stereo not drawn) [Example 8, (3-phenyl-2-propene-1-yl) 5-carbamoyl-4-(3-chlorophenyl) -2,6-dimethyl-1,4-dihydropyridine-3-carboxylate], the inhibition at 0.1 µM in experiment [1] was 31.4%. In addition, in experiment [2], the half-inhibitory concentration (IC50) was 32 nM and the “L-type inhibition 100 nM (%)” value is recorded as 75%.
On to `CC1=C(C(=O)O)C(c2cccc(Cl)c2)C(C(=O)OCC(=O)Nc2ccccc2)=C(C)N1` (stereo not drawn) [Example 14, mono(phenylcarbamoylmethyl) 4-(3-chlorophenyl)-2,6-dimethyl-1,4-dihydropyridine-3,5-dicarboxylate], for which, in experiment [1], the inhibition at 0.1 µM turned out to be 28.6%. In experiment [2], the IC50 is 50 nM and the “L-type inhibition 100 nM (%)” value turned out to be 70%.
For `COc1cccc(C2C(C(=O)O)=C(C)NC(C)=C2C(=O)OC/C=C/c2ccccc2)c1` (stereo not drawn) [Example 20, mono(3-phenyl-2-propene-1-yl) 4-(3-methoxyphenyl)-2,6-dimethyl-1,4-dihydropyridine-3,5-dicarboxylate], in experiment [1], the inhibition at 0.1 µM amounted to 24.3%. In experiment [2], the IC50 was 250 nM and the “L-type inhibition 100 nM (%)” value came to 38%.
Turning to `CC1=C(C#N)C(c2cccc(Cl)c2)C(C(=O)OC/C=C/c2ccccc2)=C(C)N1` (stereo not drawn) [Example 9, (3-phenyl-2-propene-1-yl) 4-(3-chlorophenyl) -5-cyano-2,6-dimethyl-1,4-dihydropyridine-3-carboxylate], the inhibition at 0.1 µM in experiment [1] was 21.3%. In addition, in experiment [2], the IC50 is 82 nM and the “L-type inhibition 100 nM (%)” value is reported as 56%.

The term inhibition denotes how much of the control response was suppressed. One may read the IC50 as the midpoint of a concentration-inhibition curve.
